# Measurements taken from patent publication US20210261495A1, “COMPOSITIONS AND METHODS OF USING ITACONIC ACID DERIVATIVES” (ERGON PHARMACEUTICALS, LLC, priority 2018, published 2021).
# System: H3K4me3
# Assay: Epigenetic modification: H3K4me3 Western immunoblotting in TCR-activated hCD8+ T cells
# Type: cell-based, human
# Conditions: 10 μM, 72 hrs
# Procedure: Epigenetic Modifications. The ability of a therapeutic agent to alter acetylation and/or methylation of histones was assessed by Western Immunoblotting. Briefly, immune and other type cells were collected after being exposed to the therapeutic agent or vehicle control for a specific period of time, typically 24-72 hrs. They were then lysed and cell lysates from control and treated cells contained equal amounts of proteins were subjected to SDS-PAGE electrophoresis. The presence of acetylated and methylated histone sites was determined by Western Immunoblotting using appropriate antibodies.
# Epigenetic Modification. TCR-activated hCD8^+ T cells were exposed to 0 or 10 μM Compound (6) for 72 hrs prior to lysing. Equal amounts of cell lysates were subjected to gel electrophoresis and Western immunoblotting against trimethylated lysine site 4 of histone 3 (H3K4me3). The experiment also included cell lysates from naïve cells. Image J was used for protein quantification. Western immunoblotting against histone 3 (H3) was also performed for normalization purposes. […] Exposure of the hCD8^+ T cells to 10 μM Compound (6) led to the depletion of trimethylated H3K4. H3K4me3 is commonly associated with activation of transcription.
compound,measurement,value
"O=C(O)/C(=C\c1ccc(F)cc1)C(Cc1ccccc1)C(=O)O (stereo not shown) [Compound (6), 2-benzyl-3-[(4-flurophenyl)methylidene]butanedioic acid]",trimethylated H3K4 (H3K4me3/H3),depletion
